Several values for one entry are separate records, joined by “and”; a condition that tells them apart may be missing. Equal values may be shown once.
Assay: Drug tolerability (body weight) in TC-71 Ewing sarcoma xenograft model
Assay type: in vivo, Athymic nude mice
Details: for BWL %: negative = loss vs day 9
Method: Experiments were performed with female Athymic nude mice, 9-10 weeks old obtained from Harlan Laboratories (Udine, Italy). They were maintained under Specific Pathogen Free conditions with constant temperature and humidity, according to the institutional guidelines.
Tumour growth mice was monitored two/three times a week (depending on tumour growth rate, to avoid unnecessary stress to the animals) by Vernier caliper. Mice were sacrificed when tumour reached a mean weight of 2±0.5 gr. The antitumour activity will be expressed as T/C %, where T and C were the mean tumour weight of treated and control groups, respectively. Mice were monitored daily and weighted at least two times a week. Tolerability was evaluated on the basis of body weight loss (BWL) and clinical observation.

[1] = EDO40: EDO-S101 40 mg/kg, day 9 from tumour inoculum (treatment start)
[2] = EDO40: EDO-S101 40 mg/kg, day 10 from tumour inoculum
[3] = EDO40: EDO-S101 40 mg/kg, day 11 from tumour inoculum
[4] = EDO40: EDO-S101 40 mg/kg, day 14 from tumour inoculum
[5] = EDO40: EDO-S101 40 mg/kg, day 16 from tumour inoculum
[6] = EDO40: EDO-S101 40 mg/kg, day 18 from tumour inoculum
[7] = EDO40: EDO-S101 40 mg/kg, day 21 from tumour inoculum
[8] = EDO40: EDO-S101 40 mg/kg, day 23 from tumour inoculum
[9] = EDO40: EDO-S101 40 mg/kg, day 25 from tumour inoculum
[10] = EDO40: EDO-S101 40 mg/kg, day 28 from tumour inoculum
[11] = EDO40: EDO-S101 40 mg/kg, day 30 from tumour inoculum
[12] = EDO40: EDO-S101 40 mg/kg, day 32 from tumour inoculum
[13] = EDO60: EDO-S101 60 mg/kg, day 9 from tumour inoculum (treatment start)
[14] = EDO60: EDO-S101 60 mg/kg, day 10 from tumour inoculum
[15] = EDO60: EDO-S101 60 mg/kg, day 11 from tumour inoculum
[16] = EDO60: EDO-S101 60 mg/kg, day 14 from tumour inoculum
[17] = EDO60: EDO-S101 60 mg/kg, day 16 from tumour inoculum
[18] = EDO60: EDO-S101 60 mg/kg, day 18 from tumour inoculum
[19] = EDO60: EDO-S101 60 mg/kg, day 21 from tumour inoculum
[20] = EDO60: EDO-S101 60 mg/kg, day 23 from tumour inoculum
[21] = EDO60: EDO-S101 60 mg/kg, day 25 from tumour inoculum
[22] = EDO60: EDO-S101 60 mg/kg, day 28 from tumour inoculum
[23] = EDO60: EDO-S101 60 mg/kg, day 30 from tumour inoculum
[24] = EDO60: EDO-S101 60 mg/kg, day 32 from tumour inoculum
[25] = EDO60: EDO-S101 60 mg/kg, day 35 from tumour inoculum
[26] = EDO60: EDO-S101 60 mg/kg, day 38 from tumour inoculum
[27] = EDO60: EDO-S101 60 mg/kg, day 42 from tumour inoculum
[28] = EDO60: EDO-S101 60 mg/kg, day 46 from tumour inoculum
[29] = EDO60: EDO-S101 60 mg/kg, day 49 from tumour inoculum
[30] = EDO60: EDO-S101 60 mg/kg, day 53 from tumour inoculum
[31] = EDO60: EDO-S101 60 mg/kg, day 56 from tumour inoculum
[32] = EDO80: EDO-S101 80 mg/kg, day 9 from tumour inoculum (treatment start)
[33] = EDO80: EDO-S101 80 mg/kg, day 10 from tumour inoculum
[34] = EDO80: EDO-S101 80 mg/kg, day 11 from tumour inoculum
[35] = EDO80: EDO-S101 80 mg/kg, day 14 from tumour inoculum
[36] = EDO80: EDO-S101 80 mg/kg, day 16 from tumour inoculum
[37] = EDO80: EDO-S101 80 mg/kg, day 18 from tumour inoculum
[38] = EDO80: EDO-S101 80 mg/kg, day 21 from tumour inoculum
[39] = EDO80: EDO-S101 80 mg/kg, day 23 from tumour inoculum
[40] = EDO80: EDO-S101 80 mg/kg, day 25 from tumour inoculum
[41] = EDO80: EDO-S101 80 mg/kg, day 28 from tumour inoculum
[42] = EDO80: EDO-S101 80 mg/kg, day 30 from tumour inoculum
[43] = EDO80: EDO-S101 80 mg/kg, day 32 from tumour inoculum
[44] = EDO80: EDO-S101 80 mg/kg, day 35 from tumour inoculum
[45] = EDO80: EDO-S101 80 mg/kg, day 38 from tumour inoculum
[46] = EDO80: EDO-S101 80 mg/kg, day 42 from tumour inoculum
[47] = EDO80: EDO-S101 80 mg/kg, day 46 from tumour inoculum
[48] = EDO80: EDO-S101 80 mg/kg, day 49 from tumour inoculum

## Cn1c(CCCCCCC(=O)NO)nc2cc(N(CCCl)CCCl)ccc21 [EDO-S101, 7-(5-(bis(2-chloroethyl)amino)-1-methyl-1H-benzo[d]imidazol-2-yl)-N-hydroxyheptanamide]
40 mg/kg group, unknown reasons, probably not ascribable to the drug
  mice found dead: One
40 mg/kg, day 10, 24 h after the first dose
  maximum BWL: 5.4%
60 mg/kg, day 25, 48 h after the third dose
  maximum BWL: 11.7%
80 mg/kg, day 14, 5 days after administration
  maximum body weight loss: 19.3%
80 mg/kg, recovered by day 24
  time to recovery from body weight loss: ≤ 10 days
[1]
  Mouse body weight, group Mean: 27.0 g
  BWL %: 0.0%
[2]
  Mouse body weight, group Mean: 25.6 g
  BWL %: −5.4%
[3]
  Mouse body weight, group Mean: 25.9 g
  BWL %: −4.0%
[4]
  Mouse body weight, group Mean: 26.6 g
  BWL %: −1.6%
[5]
  Mouse body weight, group Mean: 27.2 g
  BWL %: 0.7%
[6]
  Mouse body weight, group Mean: 26.1 g
  BWL %: −3.4%
[7]
  Mouse body weight, group Mean: 26.2 g
  BWL %: −3.0%
[8]
  Mouse body weight, group Mean: 27.1 g
  BWL %: 0.3%
[9]
  Mouse body weight, group Mean: 26.3 g
  BWL %: −2.9%
[10]
  Mouse body weight, group Mean: 27.7 g
  BWL %: 2.3%
[11]
  Mouse body weight, group Mean: 28.5 g
  BWL %: 5.3%
[12]
  Mouse body weight, group Mean: 28.7 g
  BWL %: 6.0%
[13]
  Mouse body weight, group Mean: 27.6 g
  BWL %: 0.0%
[14]
  Mouse body weight, group Mean: 25.6 g
  BWL %: −7.0%
[15]
  Mouse body weight, group Mean: 25.2 g
  BWL %: −8.6%
[16]
  Mouse body weight, group Mean: 25.4 g
  BWL %: −8.1%
[17]
  Mouse body weight, group Mean: 26.2 g
  BWL %: −5.1%
[18]
  Mouse body weight, group Mean: 25.2 g
  BWL %: −8.8%
[19]
  Mouse body weight, group Mean: 24.9 g
  BWL %: −9.8%
[20]
  Mouse body weight, group Mean: 25.0 g
  BWL %: −9.2%
[21]
  Mouse body weight, group Mean: 24.4 g
  BWL %: −11.7%
[22]
  Mouse body weight, group Mean: 25.3 g
  BWL %: −8.3%
[23]
  Mouse body weight, group Mean: 25.6 g
  BWL %: −7.3%
[24]
  Mouse body weight, group Mean: 26.4 g
  BWL %: −4.2%
[25]
  Mouse body weight, group Mean: 25.4 g
  BWL %: −8.0%
[26]
  Mouse body weight, group Mean: 25.8 g
  BWL %: −6.6%
[27]
  Mouse body weight, group Mean: 25.8 g
  BWL %: −6.5%
[28]
  Mouse body weight, group Mean: 25.1 g
  BWL %: −8.9%
[29]
  Mouse body weight, group Mean: 25.4 g
  BWL %: −8.1%
[30]
  Mouse body weight, group Mean: 26.7 g
  BWL %: −3.1%
[31]
  Mouse body weight, group Mean: 28.1 g
  BWL %: 2.0%
[32]
  Mouse body weight, group Mean: 27.9 g
  BWL %: 0.0%
EDO80: EDO-S101 80 mg/kg, day 9 from tumour inoculum (treatment start), 80 mg/kg
  Mouse body weight, individual mice: 28.4 g and 25.3 g and 26.1 g and 26.6 g and 28.5 g and 27.5 g and 32 g and 28.7 g
[33]
  Mouse body weight, group Mean: 25.3 g
  BWL %: −9.5%
EDO80: EDO-S101 80 mg/kg, day 10 from tumour inoculum, 80 mg/kg
  Mouse body weight, individual mice: 25.1 g and 22.8 g and 24 g and 24.8 g and 26.8 g and 24.4 g and 28.6 g and 25.5 g
[34]
  Mouse body weight, group Mean: 24.8 g
  BWL %: −11.1%
EDO80: EDO-S101 80 mg/kg, day 11 from tumour inoculum, 80 mg/kg
  Mouse body weight, individual mice: 24.9 g and 22.6 g and 23.5 g and 24.7 g and 26 g and 24.4 g and 27.9 g and 24.3 g
[35]
  Mouse body weight, group Mean: 22.5 g
  BWL %: −19.3%
EDO80: EDO-S101 80 mg/kg, day 14 from tumour inoculum, 80 mg/kg
  Mouse body weight, individual mice: 21.8 g and 19.4 g and 22.4 g and 23.5 g and 23.2 g (2×) and 23.8 g and 22.7 g
[36]
  Mouse body weight, group Mean: 23.9 g
  BWL %: −14.3%
EDO80: EDO-S101 80 mg/kg, day 16 from tumour inoculum, 80 mg/kg
  Mouse body weight, individual mice: 23.3 g and 19.7 g and 24.2 g and 25.1 g and 24.8 g and 24.4 g and 26.9 g and 22.9 g
[37]
  Mouse body weight, group Mean: 25.2 g
  BWL %: −9.6%
EDO80: EDO-S101 80 mg/kg, day 18 from tumour inoculum, 80 mg/kg
  Mouse body weight, individual mice: 24.1 g and 22.2 g and 24.8 g and 26 g and 27 g and 26.1 g and 28 g
[38]
  Mouse body weight, group Mean: 26.2 g
  BWL %: −6.1%
EDO80: EDO-S101 80 mg/kg, day 21 from tumour inoculum, 80 mg/kg
  Mouse body weight, individual mice: 25.7 g and 22.6 g and 26.5 g and 26.2 g and 27.4 g and 26.3 g and 29.6 g and 25.2 g
[39]
  Mouse body weight, group Mean: 26.6 g
  BWL %: −4.6%
EDO80: EDO-S101 80 mg/kg, day 23 from tumour inoculum, 80 mg/kg
  Mouse body weight, individual mice: 26.1 g and 23.8 g and 26.6 g (3×) and 27.9 g and 30.1 g and 25.2 g
[40]
  Mouse body weight, group Mean: 27.8 g
  BWL %: −0.4%
EDO80: EDO-S101 80 mg/kg, day 25 from tumour inoculum, 80 mg/kg
  Mouse body weight, individual mice: 27 g and 25.1 g and 27.9 g and 27.7 g and 28.8 g
[41]
  Mouse body weight, group Mean: 28.9 g
  BWL %: 3.6%
EDO80: EDO-S101 80 mg/kg, day 28 from tumour inoculum, 80 mg/kg
  Mouse body weight, individual mice: 27.9 g and 25.4 g and 28.7 g and 28.1 g
[42]
  Mouse body weight, group Mean: 28.5 g
  BWL %: 2.1%
EDO80: EDO-S101 80 mg/kg, day 30 from tumour inoculum, 80 mg/kg
  Mouse body weight, individual mice: 28.2 g and 25.3 g and 27.3 g and 27.9 g
[43]
  Mouse body weight, group Mean: 28.0 g
  BWL %: 0.4%
EDO80: EDO-S101 80 mg/kg, day 32 from tumour inoculum, 80 mg/kg
  Mouse body weight, individual mice: 27.4 g (2×) and 24.9 g and 26.6 g
[44]
  Mouse body weight, group Mean: 25.1 g
  BWL %: −9.9%
EDO80: EDO-S101 80 mg/kg, day 35 from tumour inoculum, 80 mg/kg
  Mouse body weight, individual mice: 24.4 g and 21.9 g and 24.8 g and 26.1 g
[45]
  Mouse body weight, group Mean: 25.0 g
  BWL %: −10.4%
EDO80: EDO-S101 80 mg/kg, day 38 from tumour inoculum, 80 mg/kg
  Mouse body weight, individual mice: 24.4 g and 21.8 g and 25.1 g and 25.3 g
[46]
  Mouse body weight, group Mean: 27.1 g
  BWL %: −2.9%
EDO80: EDO-S101 80 mg/kg, day 42 from tumour inoculum, 80 mg/kg
  Mouse body weight, individual mice: 26.3 g and 23.1 g and 27 g and 28 g
[47]
  Mouse body weight, group Mean: 28.8 g
  BWL %: 3.1%
EDO80: EDO-S101 80 mg/kg, day 46 from tumour inoculum, 80 mg/kg
  Mouse body weight, individual mice: 28.6 g and 25.3 g and 28.3 g and 30 g
[48]
  Mouse body weight, group Mean: 30.2 g
  BWL %: 8.2%
EDO80: EDO-S101 80 mg/kg, day 49 from tumour inoculum, 80 mg/kg
  Mouse body weight, individual mice: 29.8 g and 26 g and 30 g and 32.3 g
All dose regimens
  BWL during second cycle: < 9%
